From US20090196910A1, “Sustained-Release Preparation of Statin Drugs” (PFICKER PHARMACEUTICALS LTD., priority 2005, published 2009)

What was measured:
[1] = test system: carboxylate hydrolases in human blood; experiment: Hydrolysis of 4-esters of statin drugs by ester hydrolases in vitro; format: in vitro ADME; settings: pH 6.5-7.5
From the text: As shown in the in vitro experiments, the esters of statin drugs formed at the 4-hydroxyl group can be transformed into statin drugs by many dominant human ester hydrolases at a pH of 6.5-7.5.

[2] = oral administration; cited from earlier work

| transformation into the statin drug by ester hydrolases [1] | SMILES | bio-availability [2] |
| --- | --- | --- |
| readily transformed into simvastatin | CCC(C)(C)C(=O)O[C@H]1C[C@@H](C)C=C2C=C[C@H](C)C(CC[C@@H]3C[C@@H](OC(C)=O)CC(=O)O3)C21 (some centres unmarked) [4-acetate of simvastatin] |  |
|  | CC(C)c1c(C(=O)Nc2ccccc2)c(-c2ccccc2)c(-c2ccc(F)cc2)n1CC[C@@H](O)C[C@@H](O)CC(=O)O [atovastatin] | no more than 14% |
